For 60 molecules, IC50 results are on record in patent US11873291B2, “Quinoline cGAS antagonist compounds” (ImmuneSensor Therapeutics, Inc., priority 2020, dated 2024).

T1 sequence (Q8N884 147-522): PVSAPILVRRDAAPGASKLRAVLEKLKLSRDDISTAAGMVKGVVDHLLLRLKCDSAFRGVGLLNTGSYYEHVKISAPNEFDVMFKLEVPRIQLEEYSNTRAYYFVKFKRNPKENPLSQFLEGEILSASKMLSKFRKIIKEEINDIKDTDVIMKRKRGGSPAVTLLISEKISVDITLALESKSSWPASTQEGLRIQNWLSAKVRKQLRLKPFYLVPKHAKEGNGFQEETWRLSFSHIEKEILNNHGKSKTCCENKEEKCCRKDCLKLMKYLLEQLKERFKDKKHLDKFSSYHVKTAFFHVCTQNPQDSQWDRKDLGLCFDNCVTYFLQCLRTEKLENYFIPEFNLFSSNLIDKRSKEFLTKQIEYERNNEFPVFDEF

The first assay addresses T1, recombinant human cGAS (aa147-522) (Homo sapiens, UniProt Q8N884).
T1 construct: recombinant human cGAS (aa147-522); His6-SUMO (cleaved yes); made in house; host or cells: E. coli BL21/pLys
Description: In vitro inhibition assay of cGAS activity (ATP consumption, KinaseGlo Max). The settings on record: Table 2, read-out: cGAS Inhibition Results IC50. The format is biochemical. As to the method:
Expression and Purification of Recombinant cGAS Protein: cDNA encoding full-length or amino acids […] of human cGAS was inserted into a modified pET28a vector containing an in-frame His6-SUMO tag. The E. coli strain BL21/pLys harboring the plasmid was induced with 0.5 mM IPTG at 18° C. overnight. His6-SUMO tag was removed by a SUMO protease digestion following purification of the His6-SUMO-cGAS as described previously (Sun et al, 2013, Science 339, 786).
In vitro inhibition assay of cGAS activity: A 60 μL mixture containing 20 mM Tris-Cl, pH 7.5, 5 mM MgCl2, 0.2 mg/mL BSA, 0.01 mg/mL Herring testis DNA, 6.6 μM ATP, 0.1 mM GTP, 1.5 μg/mL of recombinant human cGAS (aa147-522) and serial dilutions of a test compound in DMSO was added to a 96-well plate and incubated at 37° C. for 20 minutes. At the end of reaction, 40 μL of KinaseGlo Max (Promega) was added and chemiluminescence was measured with a luminometer. Inhibitory effect of a compound is evaluated by plotting percentage of ATP consumption against logarithm of compound concentrations. IC50 value was calculated using GraphPad Prism 8 (GraphPad Software, Inc.).
The letter codes for cGAS IC50 include: A (<2 μM); B (2-30 μM); C (>30 μM).
(In general: Kinase-Glo reads ATP consumption through a luciferase reaction.)
Broadly, the IC50 is the concentration that gives 50% inhibition. Regarding `Clc1ccc2c(-n3ccnc3)cc(N3CCNCC3)nc2c1` [I-76, 7-chloro-4-(1H-imidazol-1-yl)-2-(piperazin-1-yl)quinoline], the IC50 lay within 2 to 30 µM.

`COC(=O)c1cncc(-c2cc(-n3ccnc3)c3ccc(Cl)cc3n2)c1` [I-34]: the half-maximal inhibitory concentration (IC50) was above 30 µM.

In the case of `CCOC(=O)c1ccccc1-c1cc(-n2ccnc2)c2ccc(Cl)cc2n1` [I-12], the IC50 is above 30 µM.

With `Clc1ccc2c(-n3ccnc3)cc(-c3cn[nH]c3)nc2c1Cl` [I-378], the IC50 was below 2 µM.

On to `Cn1cc(-c2cc(NCC(=O)O)c3ccc(Cl)c(Cl)c3n2)cn1` [I-425], for which the IC50 is above 30 µM.

As for `COC(=O)C1CCN(c2cc(-n3ccnc3)c3ccc(Cl)cc3n2)CC1` [I-131], the IC50 lay within 2 to 30 µM.

With `O=C(O)C1CCN(c2cc(-n3ccnc3)c3ccc(Cl)cc3n2)CC1` [I-127], the IC50 fell in the range of 2 to 30 µM.

Turning to `O=C(O)[C@@H]1CCN1c1cc(-c2cn[nH]c2)c2ccc(Cl)c(Cl)c2n1` [I-352], the IC50 is 2 to 30 µM.

On to `O=C(O)[C@@H]1CN(c2cc(-n3ccnc3)c3ccc(Cl)cc3n2)CC[C@H]1O` [I-130], for which the IC50 was 2 to 30 µM.

Turning to `CN(CCS(=O)(=O)O)c1cc(-n2ccnc2)c2ccc(Cl)c(Cl)c2n1` [I-159], the IC50 is below 2 µM.

Turning to `O=C(C[C@@H]1CCCN1c1cc(-c2cn[nH]c2)c2ccc(Cl)c(Cl)c2n1)N1CCC[C@H]1CO` [I-454], the IC50 was below 2 µM.

As to `O=[PH](O)OC1CCCN(c2cc(-n3ccnc3)c3ccc(Cl)c(Cl)c3n2)C1` (stereo not drawn) [I-111, 1-(7,8-dichloro-4-(1H-imidazol-1-yl)quinolin-2-yl)piperidin-3-yl hydrogen phosphonate], the IC50 was below 2 µM.

With `CC(C)c1ccc2c(-c3cn[nH]c3)cc(NCCS(N)(=O)=O)nc2c1` [I-269], the IC50 was above 30 µM.

As to `Cc1cc(NCC(=O)O)c2ccc(Cl)c(Cl)c2n1` [I-293], the IC50 is 2 to 30 µM.

On to `CS(=O)(=O)N1CCN(c2cc(-n3ccnc3)c3ccc(Cl)cc3n2)CC1` [I-78, 7-chloro-4-(1H-imidazol-1-yl)-2-(4-(methylsulfonyl)piperazin-1-yl) quinoline], for which the IC50 was above 30 µM.

With `CNS(=O)(=O)CCNc1cc(-n2ccnc2)c2ccc(Cl)c(Cl)c2n1` [I-201], the IC50 is below 2 µM.

Consider `NC1CCCN(c2cc(-n3ccnc3)c3ccc(Cl)cc3n2)C1` (stereo not drawn) [I-108, 1-(7-chloro-4-(1H-imidazol-1-yl)quinolin-2-yl)piperidin-3-amine], for which the IC50 is above 30 µM.

For `COc1ccc(-c2cc(-n3ccnc3)c3ccc(Cl)c(Cl)c3n2)cc1C#N` [I-40], the IC50 is above 30 µM.

Consider `O=C(CO)N1CCOC(CNc2cc(-c3cn[nH]c3)c3ccc(Cl)c(Cl)c3n2)C1` (stereo not drawn) [I-222], for which the IC50 was below 2 µM.

On to `COc1c(-c2ccccc2)ccc2c(-n3ccnc3)cc(-c3ccccc3)nc12` [I-51], for which the concentration for half-maximal inhibition (IC50) was above 30 µM.

Turning to `O=S1(=O)CCN(c2cc(-n3ccnc3)c3ccc(Cl)c(Cl)c3n2)CC1` [I-87], the IC50 lay within 2 to 30 µM.

With `NS(=O)(=O)C1CCCN(c2cc(-c3cn[nH]c3)c3ccc(Cl)c(Cl)c3n2)C1` (stereo not drawn) [I-373], the IC50 is below 2 µM.

For `CN(CCC(=O)NCc1ccccc1)c1cc(-c2cn[nH]c2)c2ccc(Cl)c(Cl)c2n1` [I-193, N-benzyl-3-((7,8-dichloro-4-(1H-pyrazol-4-yl)quinolin-2-yl)(methyl)amino)propenamide], the IC50 lay within 2 to 30 µM.

In the case of `CC(C)(C)OC(=O)NS(=O)(=O)N1CCOC(CNc2cc(-n3ccnc3)c3ccc(Cl)c(Cl)c3n2)C1` (stereo not drawn) [I-398, tert-butyl ((2-(((7,8-dichloro-4-(1H-imidazol-1-yl)quinolin-2-yl)amino)methyl)morpholino)sulfonyl)carbamate], the IC50 lay within 2 to 30 µM.

With `Clc1ccc2c(-n3ccnc3)cc(-c3ccc4nn[nH]c4c3)nc2c1` [I-35], the IC50 fell in the range of 2 to 30 µM.

Take `O=C(C[C@@H]1CCCN1c1cc(-n2ccnc2)c2ccc(Cl)c(Cl)c2n1)N[C@@H](C(=O)O)c1ccccc1` [I-388]: the IC50 was in the range of 2 to 30 µM.

For `OCC1COCCN1c1cc(-n2ccnc2)c2ccc(Cl)c(Cl)c2n1` (stereo not drawn) [I-97], the IC50 was 2 to 30 µM.

For the molecule `O=C1CC(Nc2cc(-n3ccnc3)c3ccc(Cl)cc3n2)CCN1` (stereo not drawn) [I-365], the IC50 was above 30 µM.

Take `COc1ccc(C(=O)O)cc1-c1cc(-n2ccnc2)c2ccc(Cl)cc2n1` [I-30]: the IC50 was in the range of 2 to 30 µM.

For `CS(=O)(=O)Nc1cccc(-c2cc(-n3ccnc3)c3ccc(Cl)cc3n2)c1` [I-10, N-(3-(7-chloro-4-(1H-imidazol-1-yl)quinolin-2-yl)phenyl)methanesulfonamide], the IC50 is 2 to 30 µM.

Turning to `CNS(=O)(=O)CCN(C)c1cc(-n2ccnc2)c2ccc(Cl)c(Cl)c2n1` [I-205], the IC50 was below 2 µM.

Take `Clc1ccc2c(Cl)cc(-c3cn[nH]c3)nc2c1Cl` [I-404, 4,7,8-trichloro-2-(1H-pyrazol-4-yl)quinoline]: the IC50 is above 30 µM.

`NS(=O)(=O)CC(Cc1ccccc1)Nc1cc(-n2ccnc2)c2ccc(Cl)c(Cl)c2n1` (stereo not drawn) [I-208, 2-((7,8-dichloro-4-(1H-imidazol-1-yl)quinolin-2-yl)amino)-3-phenylpropane-1-sulfonamide]: the IC50 was in the range of 2 to 30 µM.

For the molecule `CNC(=O)CCN(C)c1cc(-c2cn[nH]c2)c2ccc(Cl)c(Cl)c2n1` [I-192], the IC50 was below 2 µM.

In the case of `OC[C@@H](Nc1cc(-n2ccnc2)c2ccc(Cl)c(Cl)c2n1)c1ccccc1` [I-246], the IC50 lay within 2 to 30 µM.

As to `O=[PH](O)OCCC1CCCN(c2cc(-c3cn[nH]c3)c3ccc(Cl)c(Cl)c3n2)C1` (stereo not drawn) [I-330], the IC50 was below 2 µM.

`CC(C)(C)c1cc(C(=O)O)cc(-c2cc(-n3ccnc3)c3ccc(Cl)cc3n2)c1` [I-25]: the IC50 is above 30 µM.

Regarding `Oc1ccc(-c2cc(-c3ccccc3)nc3cc(Cl)ccc23)cn1` [I-73], the IC50 is above 30 µM.

With `Cc1cc(NCCO)c2ccc(Cl)c(Cl)c2n1` [I-304], the IC50 is above 30 µM.

Still in this assay, the particulars now being: Table 3, read-out: cGAS Inhibition Results IC50.
As for `O=C(O)[C@@H]1CN(c2cc(-n3ccnc3)c3ccc(Cl)c(Cl)c3n2)CCO1` [I-521], the IC50 is below 2 µM.

Regarding `CN(CCN(CCC(=O)O)S(C)(=O)=O)c1cc(-n2ccnc2)c2ccc(Cl)c(Cl)c2n1` [I-634, 3-(N-(2-((7,8-dichloro-4-(1H-imidazol-1-yl)quinolin-2-yl)(methyl)amino)ethyl)methylsulfonamido) propanoic acid], the IC50 is below 2 µM.

For the molecule `CN(CCS(=O)(=O)N1CCCC(C(=O)O)C1)c1cc(-n2ccnc2)c2ccc(Cl)c(Cl)c2n1` (stereo not drawn) [I-631], the IC50 is below 2 µM.

Regarding `O=C(O)C1CC2CCC(C1)N2c1cc(-n2ccnc2)c2ccc(Cl)c(Cl)c2n1` (stereo not drawn) [I-493], the IC50 is below 2 µM.

`COC(=O)[C@@H]1[C@@H](OCCC(=O)O)CCN1c1cc(-n2ccnc2)c2ccc(Cl)c(Cl)c2n1` [I-870]: the IC50 lay within 2 to 30 µM.

In the case of `Cn1cc(-c2cc(N3CCC[C@H]3COCCC(=O)O)nc3c(Cl)c(Cl)ccc23)cn1` [I-826], the IC50 is above 30 µM.

For the molecule `NS(=O)(=O)C1CCN(C(=O)C[C@@H]2CCCN2c2cc(-n3ccnc3)c3ccc(Cl)c(Cl)c3n2)C1` (stereo partly drawn) [I-537], the IC50 lay in the range of 2 to 30 µM.

In the case of `CC(C)COC(=O)[C@@H]1[C@@H](O)CCN1c1cc(-n2ccnc2)c2ccc(Cl)c(Cl)c2n1` [I-602], the IC50 lay in the range of 2 to 30 µM.

Consider `COC(=O)c1cccn1-c1cc(-n2ccnc2)c2ccc(Cl)c(Cl)c2n1` [I-458], for which the IC50 lay within 2 to 30 µM.

For the molecule `CC(=O)O[C@H]1CCN(c2cc(-n3ccnc3)c3ccc(Cl)c(Cl)c3n2)[C@@H]1C(=O)O` [I-643, (2S,3S)-3-acetoxy-1-(7,8-dichloro-4-(1H-imidazol-1-yl)quinolin-2-yl)pyrrolidine-2-carboxylic acid], the IC50 is below 2 µM.

For the molecule `O=C(C[C@@H]1CCCN1c1cc(-n2ccnc2)c2ccc(Cl)c(Cl)c2n1)N1CCC(c2nnn[nH]2)C1` (stereo partly drawn) [I-536], the IC50 was below 2 µM.

Turning to `O=C(O)[C@H]1[C@@H](O)CCN1c1cc(-n2ccnc2)c2ccc(Cl)c(Cl)c2n1` [I-499], the IC50 was below 2 µM.

Regarding `O=C(O)C1(c2ccccc2)CCCN1c1cc(-n2ccnc2)c2ccc(Cl)c(Cl)c2n1` (stereo not drawn) [I-457], the half-inhibitory concentration (IC50) lay within 2 to 30 µM.

`CC(C)(C)OC(=O)[C@@H]1CCCN1c1cc(-n2ccnc2)c2ccc(Cl)c(Cl)c2n1` [I-644]: the IC50 lay within 2 to 30 µM.

For the molecule `O=C(O)c1cccc(S(=O)(=O)N[C@@H]2C[C@@H](C(=O)O)N(c3cc(-n4ccnc4)c4ccc(Cl)c(Cl)c4n3)C2)c1` [I-510], the IC50 is below 2 µM.

Consider `O=C(O)CCOCC(CO)Nc1cc(-n2ccnc2)c2ccc(Cl)c(Cl)c2n1` (stereo not drawn) [I-873], for which the IC50 was below 2 µM.

As to `COC(=O)[C@H]1[C@@H](O)CCN1c1cc(-n2ccnc2)c2ccc(Cl)c(Cl)c2n1` [I-500], the IC50 fell in the range of 2 to 30 µM.

Turning to `CN(CCS(=O)(=O)NCCCO)c1cc(-n2ccnc2)c2ccc(Cl)c(Cl)c2n1` [I-632], the IC50 was below 2 µM.

Regarding `O[C@@H]1CN(c2cc(-n3ccnc3)c3ccc(Cl)c(Cl)c3n2)C[C@H]1O` [I-501], the IC50 was below 2 µM.

Take `O=C(O)[C@@H]1C[C@@H](N2CCOCC2)CN1c1cc(-n2ccnc2)c2ccc(Cl)c(Cl)c2n1` [I-518]: the IC50 was below 2 µM.

In the case of `O=C(O)CCOC[C@@H]1[C@@H]2C[C@@H]2CN1c1cc(-n2ccnc2)c2ccc(Cl)c(Cl)c2n1` (stereo in doubt) [I-809], the IC50 is below 2 µM.
